Measurements as given in patent publication US8586043B2, “Methods for treating breast cancer with inhibitors of neurotensin activation of NTSR1” (INSERM ( Institut National de la Sante et de la Recherche …, priority 2009, dated 2013).

System: NTS gene
Experiment: NTS transcript RT-PCR in HBEC after hormonal treatment
Type: cell-based, human
Details: 1 μM ICI 182780 added concomitantly to 10 nM estradiol, 48 h
Protocol: A) Left, one μg of total RNA from HBEC or whole gland were reverse-transcribed and a PCR experiment specific for NTS was performed. Right, one μg of total RNA from HBEC cells (control, treated with 10 nM estradiol (E2) with or without 1 μM ICI 182780) was reverse-transcribed. A PCR experiment was performed using specific primers for NTS and GAPDH.
The protocols for total RNA extraction, reverse-transcription reaction (RT), and PCR are documented in Souaze et al (Souaze F, Rostene W, Forgez P (1997) J. Biol. Chem. 272:10087-10094). RT was performed on 1 μg of total RNA using a specific NTSR1 primer (5′-[…]-3′ SEQ ID NO:3) or 50 pmol of oligo dT and oligo dN. The PCR amplification was performed on a 1:5 v/v of the RT reaction using 25 pmol of each primer 5′-[…]-3′ SEQ ID NO:4 and 5′-[…]-3′ SEQ ID NO:5 for NTSR1, and 5′-[…]-3′ SEQ ID NO:6 and 5′-[…]-3′ SEQ ID NO:7 for NTS, and 1 unit of Taq polymerase (Applied Biosystems, Courtaboeuf, France). The amplification profile consisted of denaturation at 94° C. for 30 s, annealing at 57° C. for 45 s, and extension at 72° C. for 45 s. The PCR cycle were preceded by denaturation at 95° C. for 15 min and were followed by a final extension at 72° C. for 7 min.
HBEC were synchronized for 40 h in Ham F10 phenol red free medium containing 20 μM lovastatin. Synchronization was stopped by adding 2 mM mevalonate to the hormone-containing medium. […]

## C[C@]12CC[C@@H]3c4ccc(O)cc4C[C@@H](CCCCCCCCC[S+]([O-])CCCC(F)(F)C(F)(F)F)[C@H]3[C@@H]1CC[C@@H]2O (stereo partly shown) [ICI 182780]
  effect on the estradiol-induced enhancement of NTS transcripts: abolished
